Test results: patent publication US20250333407A1, “Compounds and Their Use for Treatment of Hemoglobinopathies” (Bristol-Myers Squibb Company, priority 2024, published 2025)

What was measured:
Assay type in all cases: cell-based
ZBTB7A = molecular target: T1, ZBTB7A (Homo sapiens, UniProt O95365+Q96SW2); assay: HUDEP-2 ZBTB7A HiBiT degradation assay; details: HiBiT-tagged ZBTB7A degradation in HUDEP-2 cells, 24 hours of treatment; read-out: ZBTB7A EC50
T1 construct: HUDEP-2 cells engineered to express a HiBiT tag in either the WIZ (Widely interspaced zinc finger) or ZBTB7A
Protocol: (§1) WIZ Assay and ZBTB7A EC50 Assays. The HiBiT degradation assays for WIZ and ZBTB7A in HUDEP-2 cells were performed as described below. HUDEP-2 cells engineered to express a HiBiT tag in either the WIZ (Widely interspaced zinc finger) or ZBTB7A (Zinc Finger And BTB Domain Containing 7A) proteins were maintained in low attachment flasks in StemSpan SFEM II media supplemented with Penicillin-Streptomycin (50 U/mL), rhSCF (50 ng/mL), rhEPO (3 IU/mL), dexamethasone (0.4 μg/mL) and doxycycline (1 μg/mL). Prior to start of the assay, cell count and viability were measured by trypan blue exclusion using the Vi-cell XR cell viability analyzer.
For the HUDEP-2 ZBTB7A HiBiT assay, cell count and viability were measured by trypan blue exclusion using the Vi-cell XR cell viability analyzer and the cells were transferred to a 50 mL conical and centrifuged at 500 g for five minutes. Cells were resuspended in fresh IMDM media supplemented with L-Glutamine (1×), Penicillin-Streptomycin (50 U/mL), holo-transferrin (330 μg/mL), heparin (2 IU/mL), r-human Insulin (10 μg/mL), rhEPO (3 IU/mL), rhSCF (100 ng/mL)+Dox (1 μg/mL) and 5% human plasma in low attachment flasks, which were placed in a 37° C. incubator with 5% CO2. After 48 hours, cell count and viability were measured by trypan blue exclusion using the Vi-cell XR cell viability analyzer. The HUDEP-2 ZBTB7A cells were transferred to a 50 mL conical, centrifuged at 500 g for five minutes and resuspended at a density of 1.0×10^6 cells/ml in IMDM media supplemented with L-Glutamine (1×), Penicillin-Streptomycin (50 U/mL), holo-transferrin (330 μg/mL), heparin (2 IU/mL), r-human Insulin (10 μg/mL), rhEPO (3 IU/mL), rhSCF (100 ng/mL)+Dox (1 μg/mL) and 5% human plasma. Forty microliters of cell suspension was dispensed into 384-well Low Flange White Flat Bottom Polystyrene TC-treated Microplates containing pre-dispensed compounds, using a VIAFLO 384 liquid hander, and placed in a 37° C. incubator with 5% CO2. […] After 24 hours of treatment, 40 μL Nano-Glo HiBiT Lytic Detection System reagent was dispensed into each well using a VIAFLO 384 liquid hander. Plates were incubated for 25 minutes at room temperature and the luminescence was read as relative luminescent units using the EnVision plate reader. EC50 and Y-min values were calculated using curves calculated from dotmatics software after the normalization to the DMSO control of 10 different concentrations: 10, 3.33, 1.11, 0.37, 0.12, 0.04 0.0137, 0.0046, 0.0015 and […] respectively.

WIZ = molecular target: T2, WIZ (Homo sapiens, UniProt O95785+Q96SW2); assay: HUDEP-2 WIZ HiBiT degradation assay; details: HiBiT-tagged WIZ degradation in HUDEP-2 cells, 24 hours of treatment; read-out: WIZ EC50
T2 construct: HUDEP-2 cells engineered to express a HiBiT tag in either the WIZ (Widely interspaced zinc finger) or ZBTB7A
Protocol: as §1
For the HUDEP-2 WIZ HiBiT assay, cells were transferred to a 50 mL conical and centrifuged at 500 g for five minutes. Cells were resuspended in fresh StemSpan SFEM II media supplemented with Penicillin-Streptomycin (50 U/mL), rhSCF (50 ng/mL), rhEPO (3 IU/mL), dexamethasone (0.4 μg/mL) and doxycycline (1 μg/mL) at a density of 1.0×10^6 cells/ml. Forty microliters of cell suspension was dispensed into 384-well Low Flange White Flat Bottom Polystyrene TC-treated Microplates containing pre-dispensed compounds, using a VIAFLO 384 liquid hander, and placed in a 37° C. incubator with 5% CO2. […] After 24 hours of treatment, 40 μL Nano-Glo HiBiT Lytic Detection System reagent was dispensed into each well using a VIAFLO 384 liquid hander. Plates were incubated for 25 minutes at room temperature and the luminescence was read as relative luminescent units using the EnVision plate reader. EC50 and Y-min values were calculated using curves calculated from dotmatics software after the normalization to the DMSO control of 10 different concentrations: 10, 3.33, 1.11, 0.37, 0.12, 0.04 0.0137, 0.0046, 0.0015 and […] respectively.

HbF = HbF HiBiT induction assay in HUDEP-2 cells; details: HUDEP-2 cells with HiBiT tag in HBG1/2, 72 hours of treatment; area under the dose response curve, higher AUC = greater HbF induction
Protocol: HbF HiBiT induction assay. The HiBiT induction assay for HbF in HUDEP-2 cells was performed as described below. HUDEP-2 cells engineered to express a HiBiT tag in HBG1/2 were maintained at a density of 0.1-1×10^6 cells/ml in StemSpan SFEM II supplemented with 1% penicillin/streptomycin, hSCF (50 ng/mL), erythropoietin (EPO; 3 IU/mL), dexamethasone (DEX; 0.4 μg/mL), and doxycycline hyclate (DOX; 1 μg/mL). The cells were cultured in low adherence flasks, in a humidified incubator, set at 37° C. with 5% CO2. Cell counts and viability were measured by trypan blue exclusion using the Vi-CELL XR cell viability analyzer and the cell growth was consistently maintained in log phase.
Prior to the start of experiments, HbF HiBiT-tagged HUDEP-2 cells were transferred to a 50 mL conical and centrifuged at 500×g for 5 minutes, the supernatant removed, and the pellet washed in 5 mL of 1×PBS. The washed cells were centrifuged again at 500×g for 5 minutes and resuspended in IMDM containing; 1×glutamine, 1×penicillin/streptomycin, holo-transferrin (330 μg/mL), heparin (2 IU/mL), r-human insulin (10 μg/mL), EPO (3 IU/mL), 5% human plasma, hSCF (100 ng/mL) and DOX (1 μg/mL) to a final density of 0.3×10^6 cells/mL. Forty microliters of cell suspension were dispensed into 384-well Low Flange White Flat Bottom Polystyrene TC-treated Microplates containing pre-dispensed compounds, using a VIAFLO 384 liquid hander, and placed in a humidified incubator at 37° C. with 5% CO2. […] After 72 hours of treatment, 40 μL of Nano-Glo HiBiT Lytic Solution (prepared according to manufacturer's instructions) were dispensed into each well using a VIAFLO 384 liquid handler, and the plates were shaken for 20 seconds. Plates were incubated for 20 minutes at room temperature, and the luminescence was read as relative luminescent units using an EnVision plate reader.
Dose response curves were generated, and EC50, Ymax, and then area under the curve (AUC) values were calculated. HbF induction was measured using the calculated area under the curve (AUC) value, with higher AUC values indicative of greater HbF induction relative to lower AUC values.

T2 sequence (O95785 whole entry): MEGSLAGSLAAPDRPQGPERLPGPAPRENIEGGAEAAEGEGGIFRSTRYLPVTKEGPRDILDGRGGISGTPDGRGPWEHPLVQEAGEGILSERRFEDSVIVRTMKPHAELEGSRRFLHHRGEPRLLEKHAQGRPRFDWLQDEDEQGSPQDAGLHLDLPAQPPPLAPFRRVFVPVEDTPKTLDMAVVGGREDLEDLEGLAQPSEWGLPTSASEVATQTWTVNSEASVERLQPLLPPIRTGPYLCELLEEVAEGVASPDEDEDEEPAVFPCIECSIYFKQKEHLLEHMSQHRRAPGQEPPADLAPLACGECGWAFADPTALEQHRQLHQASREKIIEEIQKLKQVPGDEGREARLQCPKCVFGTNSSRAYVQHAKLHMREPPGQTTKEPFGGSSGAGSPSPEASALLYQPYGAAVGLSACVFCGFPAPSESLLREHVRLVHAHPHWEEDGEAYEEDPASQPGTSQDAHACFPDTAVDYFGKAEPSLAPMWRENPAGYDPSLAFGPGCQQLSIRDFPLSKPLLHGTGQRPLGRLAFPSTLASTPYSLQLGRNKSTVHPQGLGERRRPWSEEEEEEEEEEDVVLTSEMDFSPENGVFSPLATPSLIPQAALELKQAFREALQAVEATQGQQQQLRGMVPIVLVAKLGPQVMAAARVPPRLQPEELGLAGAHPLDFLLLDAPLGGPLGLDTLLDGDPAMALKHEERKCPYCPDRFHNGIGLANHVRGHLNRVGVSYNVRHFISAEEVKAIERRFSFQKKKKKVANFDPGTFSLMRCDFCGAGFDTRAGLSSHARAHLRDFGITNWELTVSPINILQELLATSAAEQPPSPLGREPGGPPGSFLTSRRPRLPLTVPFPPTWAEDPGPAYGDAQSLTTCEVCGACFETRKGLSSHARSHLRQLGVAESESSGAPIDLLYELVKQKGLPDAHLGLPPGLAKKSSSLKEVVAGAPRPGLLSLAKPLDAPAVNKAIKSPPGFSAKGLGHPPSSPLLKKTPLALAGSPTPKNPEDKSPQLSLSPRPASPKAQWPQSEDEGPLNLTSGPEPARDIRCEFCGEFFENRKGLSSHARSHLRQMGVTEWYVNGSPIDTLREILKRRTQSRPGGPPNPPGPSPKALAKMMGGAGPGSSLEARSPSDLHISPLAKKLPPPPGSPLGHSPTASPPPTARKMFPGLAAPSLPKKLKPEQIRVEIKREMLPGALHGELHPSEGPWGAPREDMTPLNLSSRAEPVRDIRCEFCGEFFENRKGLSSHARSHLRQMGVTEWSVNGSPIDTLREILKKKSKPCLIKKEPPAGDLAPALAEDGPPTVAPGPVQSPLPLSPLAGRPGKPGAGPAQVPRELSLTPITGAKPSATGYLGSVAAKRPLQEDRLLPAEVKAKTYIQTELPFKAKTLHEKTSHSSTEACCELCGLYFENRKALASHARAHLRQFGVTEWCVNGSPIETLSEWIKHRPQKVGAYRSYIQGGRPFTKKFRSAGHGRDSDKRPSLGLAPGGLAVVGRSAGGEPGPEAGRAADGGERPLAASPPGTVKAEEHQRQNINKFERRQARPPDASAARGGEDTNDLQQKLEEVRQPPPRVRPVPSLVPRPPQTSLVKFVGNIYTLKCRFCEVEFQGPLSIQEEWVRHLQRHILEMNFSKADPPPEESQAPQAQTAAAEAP
T2 sequence (Q96SW2 whole entry): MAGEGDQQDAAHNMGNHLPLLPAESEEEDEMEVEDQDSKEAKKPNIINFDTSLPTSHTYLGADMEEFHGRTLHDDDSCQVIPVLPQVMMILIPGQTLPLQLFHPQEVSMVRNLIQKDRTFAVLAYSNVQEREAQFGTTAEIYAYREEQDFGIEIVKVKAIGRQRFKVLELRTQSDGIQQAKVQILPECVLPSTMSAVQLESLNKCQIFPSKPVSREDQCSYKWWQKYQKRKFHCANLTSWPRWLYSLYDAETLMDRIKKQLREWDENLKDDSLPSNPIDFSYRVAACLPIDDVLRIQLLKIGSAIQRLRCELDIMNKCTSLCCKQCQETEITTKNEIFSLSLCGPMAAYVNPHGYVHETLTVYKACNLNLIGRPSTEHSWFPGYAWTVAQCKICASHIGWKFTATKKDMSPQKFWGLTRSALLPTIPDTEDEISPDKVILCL
T2 sequence (Q16531 whole entry partner): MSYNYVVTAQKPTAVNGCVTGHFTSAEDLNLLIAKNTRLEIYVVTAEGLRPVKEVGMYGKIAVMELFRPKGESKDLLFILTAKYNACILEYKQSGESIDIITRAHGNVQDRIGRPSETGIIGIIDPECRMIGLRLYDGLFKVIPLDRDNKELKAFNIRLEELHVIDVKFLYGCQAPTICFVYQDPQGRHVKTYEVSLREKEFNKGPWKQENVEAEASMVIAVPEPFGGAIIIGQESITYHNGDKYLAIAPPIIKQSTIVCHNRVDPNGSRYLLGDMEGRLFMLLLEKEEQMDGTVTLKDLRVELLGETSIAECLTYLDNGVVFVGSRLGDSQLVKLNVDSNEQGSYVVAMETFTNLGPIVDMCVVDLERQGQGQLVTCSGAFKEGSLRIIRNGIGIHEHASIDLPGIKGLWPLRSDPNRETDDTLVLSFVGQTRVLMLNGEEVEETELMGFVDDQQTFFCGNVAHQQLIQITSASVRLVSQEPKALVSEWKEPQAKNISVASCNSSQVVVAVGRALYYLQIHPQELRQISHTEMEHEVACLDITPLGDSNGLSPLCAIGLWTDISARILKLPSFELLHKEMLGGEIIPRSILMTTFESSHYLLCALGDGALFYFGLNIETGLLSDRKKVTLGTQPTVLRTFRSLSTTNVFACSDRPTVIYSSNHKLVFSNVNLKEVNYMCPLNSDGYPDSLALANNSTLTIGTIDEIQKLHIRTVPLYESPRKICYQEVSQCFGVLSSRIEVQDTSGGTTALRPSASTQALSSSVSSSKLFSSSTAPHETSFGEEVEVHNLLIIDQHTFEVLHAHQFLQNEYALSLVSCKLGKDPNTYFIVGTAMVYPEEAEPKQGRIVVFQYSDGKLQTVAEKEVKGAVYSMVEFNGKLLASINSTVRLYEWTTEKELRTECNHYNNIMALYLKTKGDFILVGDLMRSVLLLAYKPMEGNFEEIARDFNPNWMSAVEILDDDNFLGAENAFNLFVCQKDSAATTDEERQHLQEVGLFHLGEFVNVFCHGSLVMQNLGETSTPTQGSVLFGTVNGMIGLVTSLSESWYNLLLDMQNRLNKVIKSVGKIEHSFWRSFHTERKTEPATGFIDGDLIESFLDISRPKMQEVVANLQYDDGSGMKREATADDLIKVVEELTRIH
T1 sequence (O95365 whole entry): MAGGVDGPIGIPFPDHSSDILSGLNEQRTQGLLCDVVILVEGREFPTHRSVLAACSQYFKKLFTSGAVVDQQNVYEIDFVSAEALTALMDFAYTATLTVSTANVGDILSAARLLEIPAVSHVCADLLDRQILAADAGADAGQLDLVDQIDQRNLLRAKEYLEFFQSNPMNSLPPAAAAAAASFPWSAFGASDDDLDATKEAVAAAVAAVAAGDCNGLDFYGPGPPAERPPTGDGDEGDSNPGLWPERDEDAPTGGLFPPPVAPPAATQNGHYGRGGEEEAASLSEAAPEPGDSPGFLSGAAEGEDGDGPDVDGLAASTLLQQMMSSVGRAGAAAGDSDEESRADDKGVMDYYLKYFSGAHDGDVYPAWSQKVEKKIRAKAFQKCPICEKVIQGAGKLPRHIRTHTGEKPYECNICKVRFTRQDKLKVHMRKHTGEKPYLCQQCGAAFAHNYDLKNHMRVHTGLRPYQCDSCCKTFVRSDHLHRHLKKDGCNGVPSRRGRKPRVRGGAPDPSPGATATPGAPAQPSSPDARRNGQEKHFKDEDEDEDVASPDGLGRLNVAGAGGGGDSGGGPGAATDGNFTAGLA
T1 sequence (Q96SW2 whole entry): as the sequence (Q96SW2 whole entry) above
T1 sequence (Q16531 whole entry partner): as the sequence (Q16531 whole entry partner) above

Row | Compound | DC50 (ZBTB7A) [nM] | DC50 (WIZ) [nM] | HBF AUC (HbF)
1 | Cc1cc(-c2cc3c(cc2Nc2cccc4c2C(=O)N([C@@H]2CCC(=O)NC2=O)C4=O)N(C)C(=O)OC3)ccn1 [Compound 12, (R)-2-(2,6-dioxopiperidin-3-yl)-4-((1-methyl-6-(2-methylpyridin-4-yl)-2-oxo-1,4-dihydro-2H-benzo[d][1,3]oxazin-7-yl)amino)isoindoline-1,3-dione] | 34 | 37 | + (+ = 15 ≤ AUC < 100)
2 | Cc1cc(-c2cc3c(cc2Nc2cccc4c2C(=O)N(C2CCC(=O)NC2=O)C4=O)N(C)C(=O)CO3)cc(F)c1F (stereo not drawn) [Compound 13, 4-((7-(3,4-difluoro-5-methylphenyl)-4-methyl-3-oxo-3,4-dihydro-2H-benzo[b][1,4]oxazin-6-yl)amino)-2-(2,6-dioxopiperidin-3-yl)isoindoline-1,3-dione] | 38 | 50 | + (+ = 15 ≤ AUC < 100)
3 | CN(C)c1cc(-c2cc3c(cc2Nc2cccc4c2C(=O)N(C2CCC(=O)NC2=O)C4=O)N(C)C(=O)CO3)ccn1 (stereo not drawn) [Compound 15, 4-((7-(2-(dimethylamino)pyridin-4-yl)-4-methyl-3-oxo-3,4-dihydro-2H-benzo[b][1,4]oxazin-6-yl)amino)-2-(2,6-dioxopiperidin-3-yl)isoindoline-1,3-dione] | 22 | 7 | + (+ = 15 ≤ AUC < 100)
4 | CCOc1cc(-c2cc3c(cc2Nc2cccc4c2C(=O)N(C2CCC(=O)NC2=O)C4=O)N(C)C(=O)CO3)cc(C)n1 (stereo not drawn) [Compound 16, 2-(2,6-dioxopiperidin-3-yl)-4-((7-(2-ethoxy-6-methylpyridin-4-yl)-4-methyl-3-oxo-3,4-dihydro-2H-benzo[b][1,4]oxazin-6-yl)amino)isoindoline-1,3-dione] | 73 | 32 | + (+ = 15 ≤ AUC < 100)
5 | Cc1cc(-c2cc3c(cc2Nc2cccc4c2C(=O)N(C2CCC(=O)NC2=O)C4=O)N(C)C(=S)CC3)ccn1 (stereo not drawn) [Compound 19, 2-(2,6-dioxopiperidin-3-yl)-4-((1-methyl-6-(2-methylpyridin-4-yl)-2-thioxo-1,2,3,4-tetrahydroquinolin-7-yl)amino)isoindoline-1,3-dione] | 21 | 28 | ++ (++ = 100 ≤ AUC < 150)

Compounds with a lower DC50 (ZBTB7A), results first:

Row | DC50 (ZBTB7A) [nM] | DC50 (WIZ) [nM] | Compound | HBF AUC (HbF)
6 | 17 | 12 | CNc1cc(-c2cc3c(cc2Nc2cccc4c2C(=O)N(C2CCC(=O)NC2=O)C4=O)N(C)C(=O)CO3)ccn1 (stereo not drawn) [Compound 14, 2-(2,6-dioxopiperidin-3-yl)-4-((4-methyl-7-(2-(methylamino)pyridin-4-yl)-3-oxo-3,4-dihydro-2H-benzo[b][1,4]oxazin-6-yl)amino)isoindoline-1,3-dione] | + (+ = 15 ≤ AUC < 100)
7 | 18 | 13 | COc1cc(-c2cc3c(cc2Nc2cccc4c2C(=O)N([C@H]2CCC(=O)NC2=O)C4=O)N(C)C(=O)CO3)ccn1 [Compound 17, (S)-2-(2,6-dioxopiperidin-3-yl)-4-((7-(2-methoxypyridin-4-yl)-4-methyl-3-oxo-3,4-dihydro-2H-benzo[b][1,4]oxazin-6-yl)amino)isoindoline-1,3-dione] | +++ (+++ = AUC ≥ 150)
8 | 11 | 11 | Cc1cc(-c2cc3c(cc2Nc2cccc4c2C(=O)N([C@H]2CCC(=O)NC2=O)C4=O)N(C)C(=O)CO3)ccn1 [Compound 18, (S)-2-(2,6-dioxopiperidin-3-yl)-4-((4-methyl-7-(2-methylpyridin-4-yl)-3-oxo-3,4-dihydro-2H-benzo[b][1,4]oxazin-6-yl)amino)isoindoline-1,3-dione] | +++ (+++ = AUC ≥ 150)
9 | 12 | 14 | CC[C@@H]1Oc2cc(-c3ccnc(C)c3)c(Nc3cccc4c3C(=O)N([C@H]3CCC(=O)NC3=O)C4=O)cc2N(C)C1=O [Compound 20, 2-((S)-2,6-dioxopiperidin-3-yl)-4-(((S)-2-ethyl-4-methyl-7-(2-methylpyridin-4-yl)-3-oxo-3,4-dihydro-2H-benzo[b][1,4]oxazin-6-yl)amino)isoindoline-1,3-dione] | + (+ = 15 ≤ AUC < 100)
10 | 12 | 17 | Cc1cc(-c2cc3c(cc2Nc2cccc4c2C(=O)N([C@H]2CCC(=O)NC2=O)C4=O)N(C)C(=O)O[C@@H]3C)ccn1 [Compound 21, 4-(((R)-1,4-dimethyl-6-(2-methylpyridin-4-yl)-2-oxo-1,4-dihydro-2H-benzo[d][1,3]oxazin-7-yl)amino)-2-((S)-2,6-dioxopiperidin-3-yl)isoindoline-1,3-dione] | + (+ = 15 ≤ AUC < 100)
11 | 13 | 17 | Cc1cc(-c2cc3c(cc2Nc2cccc4c2C(=O)N([C@H]2CCC(=O)NC2=O)C4=O)N(C)C(=O)O[C@H]3C)ccn1 [Compound 22, 4-(((S)-1,4-dimethyl-6-(2-methylpyridin-4-yl)-2-oxo-1,4-dihydro-2H-benzo[d][1,3]oxazin-7-yl)amino)-2-((S)-2,6-dioxopiperidin-3-yl)isoindoline-1,3-dione] | +++ (+++ = AUC ≥ 150)
12 | 15 | 11 | Cc1cc(-c2cc3c(cc2Nc2cccc4c2C(=O)N([C@H]2CCC(=O)NC2=O)C4=O)N(C)C(=O)[C@H](C)O3)cc(C)n1 [Compound 23, 4-(((S)-7-(2,6-dimethylpyridin-4-yl)-2,4-dimethyl-3-oxo-3,4-dihydro-2H-benzo[b][1,4]oxazin-6-yl)amino)-2-((S)-2,6-dioxopiperidin-3-yl)isoindoline-1,3-dione] | ++ (++ = 100 ≤ AUC < 150)
